This is an account of results in paper PMC3578121 (Journal of molecular biology, 2012).

Where “and” joins values, the source holds several entries; their conditions need not be identical. Equal values may be shown once. Read-outs that look alike come from different tables or passages of the source. A value given as a limit tells only on which side of the number the result lay.

In data set [1] the target is VCCβ-prism (isolated β-prism domain of Vibrio cholerae cytolysin) (Vibrio cholerae serotype O1, UniProt P09545). The data set is described as follows: biochemical. The data set is classed as binding.
Sequence of VCCβ-prism (isolated β-prism domain of Vibrio cholerae cytolysin) (P09545 611-741 limits assumed): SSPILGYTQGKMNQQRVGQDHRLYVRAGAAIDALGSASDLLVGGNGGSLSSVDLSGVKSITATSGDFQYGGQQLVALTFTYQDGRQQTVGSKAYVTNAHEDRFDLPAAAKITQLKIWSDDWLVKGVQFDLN
Another data set concerns VCCWT. The data set is classed as binding, Vibrio cholerae.
In another data set the test system is VCC. The following applies: cited from earlier work.
In a further data set the target is VCCβ-prism (Vibrio cholerae serotype O1, UniProt P09545). Format: binding.
Sequence of VCCβ-prism (P09545 611-741 limits assumed): as above
The subject of a further data set is D617K mutant of VCC. Format: binding, Vibrio cholerae.
The test system of data set [2] is rabbit whole blood lysis by wild-type VCC.

With `OC[C@H]1OC(O)[C@@H](O)[C@@H](O)[C@@H]1O` (stereo partly drawn) [Mannose, D-mannose], in data set [1], the Kd is 14.8 ± 1.18 mM and the ΔG is -2.456 kcal/mol.

For `C[C@H](O)[C@@H](O)[C@@H](O)[C@H](O)C=O` [Fucose, L-fucose], in data set [1], the “Binding detected by ITC” value is reported as “did not exhibit measurable binding”.

With “galactose-β-1,4(fucose-α-1,3)N-acetyl glucosamine [Lewis X]”, the “Average fluorescence of VCC binding to glycan” value (“Average fluorescence” for short) in the data set on VCCWT is given as no more than 100 RFUs.

For the molecule fetuin, the “Inhibition of VCC activity” value with VCC is recorded as “inhibited”.

In the case of `COC1OC(CO)C(O)C(O)C1O` [Me-α-Glucose, Me-α-D-glucose], in data set [1], the Kd was 7.1 mM and 7.09 mM; the ΔG is -2.944 kcal/mol.

On to `O=C[C@H](O)[C@@H](O)[C@H](O[C@@H]1O[C@H](CO)[C@@H](O)[C@H](O)[C@H]1O)[C@H](O)CO` [cellobiose, glucose-β1,4-glucose], for which the “Binding detected by ITC” value in data set [1] is reported as “did not bind”.

`COC1OC(CO)C(O)C(O)C1O` [Me-β-Galactose, Me-β-D-galactose]: the “Binding detected by ITC” value in data set [1] is reported as “did not bind”.

With “GlcNAcβ1-2Manα1-6(GlcNAcβ1-2Manα1-3)Manβ1-4GlcNAcβ1-4GlcNAc [NGA2]”, on VCCβ-prism, the association rate ka is given as 37,000 M^−1s^−1. On VCCβ-prism, this molecule yielded a dissociation rate kd of 0.040 s⁻¹. Further, the Kd at VCCβ-prism (read-out: Affinity (approximate summary)) was roughly 0.0001 mM; on VCCβ-prism (read-out: KD (equilibrium analysis)) it was 0.000183 mM; at VCCβ-prism (read-out: KD (kinetic fit)), 0.000108 mM.

Take `CC(=O)N[C@@H]1[C@@H](O)[C@H](O)[C@@H](CO)O[C@H]1O` [N-acetylglucosamine, N-acetyl-D-glucosamine]: the “Binding detected by ITC” value in data set [1] was “did not exhibit measurable binding”.

Consider lacto-N-biose, for which the “Average fluorescence” value with VCCWT was no more than 100 RFUs.

With `COC1OC(CO)C(O)C(O)C1O` [Me-β-Glucose, Me-β-D-glucose], the “Binding detected by ITC” value in data set [1] is “did not bind”.

Consider `CO[C@H]1O[C@H](CO)[C@H](O)[C@H](O)[C@H]1O` [Me-α-Galactose, Me-α-D-galactose], for which, in data set [1], the “Binding detected by ITC” value is recorded as “did not bind”.

In data set [1], `OC[C@H]1OC(O)[C@H](O)[C@@H](O)[C@@H]1O` (stereo partly drawn) [Glucose] yielded a Kd of 12 ± 0.6 mM and a ΔG of -2.679 kcal/mol.

As for galactose-α-1,4-galactose [galabiose], in the data set with VCCWT, the “Average fluorescence” value was no more than 100 RFUs.

Take `OC[C@H]1O[C@H](O[C@H]2[C@H](O)[C@@H](O)C(O)O[C@@H]2CO)[C@H](O)[C@@H](O)[C@@H]1O` (mixture of isomers) [Maltose, glucose-α1,4-glucose]: in data set [1], the “KD of maltose relative to KD of Me-α-mannose” value is 10 fold, the Kd was found to be 30.9 ± 3.17 mM and the ΔG is -2.09 kcal/mol.

Consider `CO[C@@H]1O[C@H](CO)[C@@H](O)[C@H](O)[C@@H]1O` [Me-β-D-mannose], for which, in data set [1], the “Binding detected by ITC” value was “loss of binding”.

In the case of `COC1OC(CO)C(O)C(O)C1O` (stereo not drawn) [Me-α-Mannose, methyl-α-mannose], in data set [1], the “Increase in affinity of Me-α-D-mannose over D-mannose” value was “roughly five-fold increase”, the Kd was 3.24 ± 0.1 mM and the ΔG is -3.424 kcal/mol. The “Binding detected by ITC” value in the data set with D617K mutant of VCC is on record as “could not detect measurable binding”. Besides, the “Effect on half-life (t1/2) of rabbit blood hemolysis by VCC” value in data set [2] is on record as “no effect”.
